{"source": "patent US20140357602A1", "about": "“Combination Therapies For Treating Metabolic Disorders” (Genmedica Therapeutics SL, priority 2009, published 2014)", "key": {"[1]": {"system": "type II diabetes patients", "settings": "cited from earlier work"}, "islets": {"system": "islets", "settings": "low-dose streptozotocin-induced insulitis; cited from earlier work"}, "[2]": {"system": "alloxan-treated cd-1 mice", "experiment": "Alloxan induced beta cell destruction model (in vivo β-cell protection)", "experimental": "In Vivo β-Cell Protection Model β-cell destruction was induced in cd-1 male mice after 3 hours of fasting by a single intra-peritoneal (i.p.) injection of a freshly prepared solution of alloxan 200 mg/kg (Sigma-Aldrich, San Luis, Mo.) that was dissolved in NaCl 0.9%. One single intra-peritoneal drug administration was given one hour before the Alloxan administration. […] At the end of the treatment, day 4, animals were sacrificed and the plasma collected and kept at −20° C. until used.\nPancreatic beta cell destruction was induced in the cd-1 mice after 3 hours of fasting by a single intraperitoneal injection of a freshly prepared solution of alloxan 200 mg/kg (Sigma-Aldrich, San Luis, Mo.) that was dissolved in NaCl 0.9%. Single drug intraperitoneal administration was 1 hour before the alloxan administration. […] The control group was injected with the vehicle, PBS at pH 7.4. Glycemia was measured on arterio-venous blood collected from the tail vessels between 9:00 and 10:00 am on day 0 (day of drug administration) to day 4."}, "INS-1E β-cells": {"system": "INS-1E β-cells", "experiment": "In vitro INS-1E β-cell assay (apoptosis, caspase 3/7)", "type": "cell-based", "settings": "apoptosis promoted by high (11 mM) glucose and high (0.4 mM) palmitate", "experimental": "INS-1E β-cells were cultivated in the presence of a high glucose concentration (11 mM) and a high palmitate concentration (0.4 mM bound to BSA 0.5%) in order to promote glucotoxicity and lipotoxicity. […] The capacity of protecting β-cells with different combinations of antioxydants and anti-inflammatory agents were tested using these stressing conditions that reflect the pathophysiological conditions implicated in pancreatic dysfunction related to diabetes onset. INS-1E cells were seeded at a density of 80,000 cells/cm^2 in 96 wells plates 4 days before the beginning of the treatment. At 60-80% of confluence, cells were fasted with RPMI 5 mM of glucose+FBS 10%. […] The day after, fasting medium was changed by the stressing medium (glucose […]+palmitate 0.4 mM bound to BSA 0.5%). Medium, and tested agents when present, were changed every 24 h. 48 h after the addition of the stressing medium, apoptosis was measured with Apo-One Homogeneous Caspase 3/7 Assay (Promega) which determines the activity of caspase 3 and 7. […] Resulting fluorescence was read at 485/530 (excitation/emission wave length). The background apoptosis, in absence of stressing condition, was determined with INS 1E-cells cultured in the presence of fasting medium (RPMI 5 mM glucose+FBS 10%). […]"}, "[3]": {"settings": "type II diabetes patients, 4 grams/day"}}}
{"smiles": "O=C(Oc1ccccc1C(=O)O)c1ccccc1O", "note": "[salsalate]", "values": [{"measurement": "fasting glucose", "setting": "[1]; [3]", "result": "lowered"}, {"measurement": "inflammation", "setting": "[1]; [3]", "result": "reduced"}]}
{"smiles": "CC(=O)N[C@@H](CS)C(=O)O", "note": "[N-acetylcysteine]", "values": [{"measurement": "protection of islets from immune destruction", "setting": "islets", "result": "partially protect"}, {"measurement": "glycemia", "setting": "[2]; FIG. 3, NAC alone i.p. 0.38 and 0.75 mmol/kg", "result": "significant reductions of glycemia were observed only at the highest administered concentrations"}, {"measurement": "insulinemia", "setting": "[2]; FIG. 3, NAC alone i.p., highest concentrations administered", "result": "significantly increased"}, {"measurement": "glycemia", "setting": "[2]; NAC alone 0.19 mmol/kg i.p.", "result": "not to affect glycemia"}, {"measurement": "glycemia", "setting": "[2]; NAC alone 0.38 mmol/kg", "result": "statistically-significant reductions in glycemia"}]}
{"smiles": "Cc1c(C)c2c(c(C)c1O)CC[C@@](C)(CCC[C@H](C)CCC[C@H](C)CCCC(C)C)O2", "note": "[α-tocopherol]", "values": [{"measurement": "Combination concentrations (concentrations that reduced apoptosis)", "setting": "INS-1E β-cells", "result": 1, "unit": "mM"}]}
{"smiles": "NCCS(=O)(=O)O", "note": "[Taurine]", "values": [{"measurement": "Combination concentrations (concentrations that reduced apoptosis)", "setting": "INS-1E β-cells", "result": 3, "unit": "mM"}]}
{"smiles": "CC(=O)Oc1ccccc1C(=O)O", "note": "[aspirin]", "values": [{"measurement": "glucose levels", "setting": "[1]; patients with diabetes, high dosage", "result": "lower"}]}
{"smiles": "CC(=O)N(O)CCCCCNC(=O)CCC(=O)N(O)CCCCCNC(=O)CCC(=O)N(O)CCCCCN", "note": "[desferrioxamine]", "values": [{"measurement": "protection of islets from immune destruction", "setting": "islets", "result": "partially protect"}]}
{"smiles": "NC(=O)c1cccnc1", "note": "[nicotinamide]", "values": [{"measurement": "protection of islets from immune destruction", "setting": "islets", "result": "partially protect"}]}
{"smiles": "O=C([O-])c1ccccc1O.[Na+]", "note": "[Salicylate, Sodium Salicylate]", "values": [{"measurement": "glycemia", "setting": "[2]; FIG. 3, salicylate alone i.p. 0.38, 0.75 and 1.5 mmol/kg", "result": "significant reductions of glycemia were observed only at the highest administered concentrations"}, {"measurement": "glycemia", "setting": "[2]; sodium salicylate alone 0.38 mmol/kg i.p.", "result": "not to affect glycemia"}, {"measurement": "glycemia", "setting": "[2]; sodium salicylate alone 0.75 mmol/kg", "result": "statistically-significant reductions in glycemia"}]}
